Assay results: article PMC4667779 (Bioorganic & medicinal chemistry, 2014)
Like-named read-outs stand apart in the source and are kept apart here.

Molecular target: Pantothenate synthetase (PanC) from Mtb (Mycobacterium tuberculosis, UniProt P9WIL5)
Format: biochemical

Sequence of Pantothenate synthetase (PanC) from Mtb (P9WIL5 whole entry, looked up): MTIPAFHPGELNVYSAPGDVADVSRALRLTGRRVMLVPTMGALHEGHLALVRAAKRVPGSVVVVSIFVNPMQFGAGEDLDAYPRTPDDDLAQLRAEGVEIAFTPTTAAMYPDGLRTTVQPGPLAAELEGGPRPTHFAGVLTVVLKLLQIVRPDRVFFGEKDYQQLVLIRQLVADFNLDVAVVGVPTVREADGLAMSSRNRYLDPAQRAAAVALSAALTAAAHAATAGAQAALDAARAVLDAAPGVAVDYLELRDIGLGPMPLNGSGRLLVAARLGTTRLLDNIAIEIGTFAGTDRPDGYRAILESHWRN

CC(C)(C)[C@@H](O)C(=O)NS(=O)(=O)OC[C@H]1O[C@@H](n2cnc3c(N)ncnc32)[C@H](O)[C@@H]1O [1a, 5′-O-[N-((R)-2-Hydroxy-3,3-dimethylbutanoyl)sulfamoyl]adenosine]
modality of inhibition with respect to pantoic acid (double-reciprocal plots, fixed ATP and saturating β-alanine): competitive inhibitor towards pantoic acid

CC(C)(C)[C@@H](O)C(=O)NS(=O)(=O)OC[C@H]1O[C@@H](n2cnc3c(N)ncnc32)[C@@H](O)[C@@H]1O [compound 2, 5′-O-[N-((R)-2-Hydroxy-3,3-dimethylbutanoyl)sulfamoyl]vidarabine]
fold loss in affinity relative to 1a (ratio of Ki values): 4–6 fold

CC(C)(C)[C@@H](O)C(=O)NS(=O)(=O)OC[C@H]1O[C@@H](n2cnc3c(N)ncnc32)[C@H](F)[C@@H]1O [compound 3, 2′-Deoxy-2′-fluoro-5′-O-[N-((R)-2-Hydroxy-3,3-dimethylbutanoyl)sulfamoyl] adenosine]
fold loss in affinity relative to 1a: 2–3 fold

CC(C)(C)[C@@H](O)C(=O)NS(=O)(=O)OC[C@H]1C[C@@H](n2cnc3c(N)ncnc32)[C@H](O)[C@@H]1O [compound 4, 5′-O-[N-((R)-2-Hydroxy-3,3-dimethylbutanoyl)sulfamoyl]aristeromycin]
fold loss in affinity relative to 1a (ratio of Ki values): 2–3 fold

CC(C)(CO)[C@@H](O)CNS(=O)(=O)NC[C@H]1O[C@@H](n2cnc3c(N)ncnc32)[C@H](O)[C@@H]1O [compound 5, 5′-Amino-5′-deoxy-5′-N-[N-((R)-2,2-dimethylbutane-1,3-diol-4-yl)sulfamoyl] adenosine]
fold loss in affinity relative to 1a (ratio of Ki values): approximately 13 fold
